Test [1] addresses Mcl-1 protein (UniProtKB primary accession number: Q07820) (Homo sapiens, UniProt Q07820). Description: Inhibition of Mcl-1 by fluorescence polarisation, Method 1. The class given is binding. Conditions: read-out: IC50 (M) Mcl-1 FP. In short, it runs like this: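 Buffer of 10 mM HEPES pH 7.4 with 150 mM NaCl and 0.05% Tween 20 held 5 nM Mcl-1 and 1 nM fluorescein-tagged ligand (final). Compounds were tested as 11-point serial dilutions at 5% final DMSO, and binding was read by FP.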
In general terms: In fluorescence polarisation assays a small probe gives low polarisation when free and higher when bound to something large.

In test [2] the test system is H929 multiple myeloma tumour line. The test is described as follows: In vitro cytotoxicity, Microculture Tetrazolium Assay. The class given is cell-based. The conditions noted are these: Homo sapiens, NCI-H929, 48 h, H929 cells, 48 hours exposure, MTT; read-out: IC50 (μM) MTT H929. The protocol:
The cytotoxicity studies were carried out on the H929 multiple myeloma tumour line.
The cells are distributed onto microplates and exposed to the test compounds for 48 hours.

Setting [3] is: fluorescence polarisation test, Method 2 values are underlined in the patent (underlining not visible here).
[4] abbreviates: fluorescence polarisation, Method 1, or Method 2.

The record followed here is patent US9670227B2, “Thienopyrimidine derivatives, a process for their preparation and pharmaceutical compositions containing them” (LES LABORATOIRES SERVIER, priority 2013, dated 2017).

Where two headings read alike, the source gives them in different places.

Chain of Mcl-1 protein (Q07820 whole entry): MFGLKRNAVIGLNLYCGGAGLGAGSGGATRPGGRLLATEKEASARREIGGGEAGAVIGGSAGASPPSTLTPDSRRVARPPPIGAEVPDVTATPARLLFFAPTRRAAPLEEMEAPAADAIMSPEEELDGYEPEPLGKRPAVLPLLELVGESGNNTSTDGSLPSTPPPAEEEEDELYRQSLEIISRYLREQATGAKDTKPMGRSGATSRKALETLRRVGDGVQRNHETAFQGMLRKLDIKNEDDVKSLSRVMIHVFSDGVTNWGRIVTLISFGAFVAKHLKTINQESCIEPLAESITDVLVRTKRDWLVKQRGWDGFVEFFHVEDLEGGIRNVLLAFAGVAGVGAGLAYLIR

Regarding `Cc1c(-c2c(-c3ccc(F)cc3)sc3ncnc(OC(Cc4ccccc4OCc4ccnc(-c5ccccc5)n4)C(=O)O)c23)ccc(OCCN2CCN(C)CC2)c1Cl` [Example 29, (2R)-2-{[(5Sa)-5-{3-chloro-2-methyl-4-[2-(4-methylpiperazin-1-yl)ethoxy]phenyl}-6-(4-fluorophenyl)thieno[2,3-d]pyrimidin-4-yl]oxy}-3-{2-[(2-phenylpyrimidin-4-yl)methoxy]phenyl}propanoic acid], the half-inhibitory concentration (IC50) (as a rule, the concentration needed to halve the response being measured) was 3.3e-09 M in test [1] (setting [3]) and 0.007 µM in test [2].
The like results for `Cc1c(-c2c(-c3ccco3)sc3ncnc(OC(Cc4ccccc4OCc4c5ccccc5nn4C)C(=O)O)c23)ccc(OCCN2CCN(C)CC2)c1Cl` [Example 282, (2R)-2-{[(5Sa)-5-{3-chloro-2-methyl-4-[2-(4-methylpiperazin-1-yl)ethoxy]phenyl}-6-(furan-2-yl)thieno[2,3-d]pyrimidin-4-yl]oxy}-3-{2-[(2-methyl-2H-indazol-3-yl)methoxy]phenyl}propanoic acid] were, in that order, 4e-08 M and 0.601 µM.
The like results for `Cc1c(-c2c(-c3ccco3)sc3ncnc(OC(Cc4ccccc4OCc4cc(Cl)ccn4)C(=O)O)c23)ccc(OCCN2CCN(C)CC2)c1Cl` [Example 222, (2R)-2-{[(5Sa)-5-{3-chloro-2-methyl-4-[2-(4-methylpiperazin-1-yl)ethoxy]phenyl}-6-(furan-2-yl)thieno[2,3-d]pyrimidin-4-yl]oxy}-3-{2-[(4-chloropyridin-2-yl)methoxy]phenyl}propanoic acid] were, in that order, 7.4e-09 M and 0.314 µM.
Turning to `CCN(C)CCOc1ccc(-c2c(-c3ccc(F)cc3)sc3ncnc(OC(Cc4ccccc4OCc4ccnc(-c5ccccc5F)n4)C(=O)O)c23)c(C)c1Cl` [Example 747, (2R)-2-{[(5Sa)-5-(3-chloro-4-{2-[ethyl(methyl)amino]ethoxy}-2-methylphenyl)-6-(4-fluorophenyl)thieno[2,3-d]pyrimidin-4-yl]oxy}-3-(2-{[2-(2-fluorophenyl)pyrimidin-4-yl]methoxy}phenyl)propanoic acid], the figures for the IC50 in test [1] (setting [4]) and in test [2] were 3.6e-09 M and 0.0263 µM, respectively.
As to `Cc1c(-c2c(-c3ccco3)sc3ncnc(OC(Cc4ccccc4OCCC(F)(F)F)C(=O)O)c23)ccc(OCCN2CCN(C)CC2)c1Cl` [Example 288, (2R)-2-{[(5Sa)-5-{3-chloro-2-methyl-4-[2-(4-methylpiperazin-1-yl)ethoxy]phenyl}-6-(furan-2-yl)thieno[2,3-d]pyrimidin-4-yl]oxy}-3-[2-(3,3,3-trifluoropropoxy)phenyl]propanoic acid], the 50% inhibitory concentration (IC50) in test [1] (setting [3]) amounted to 1.2e-08 M; in test [2], 0.086 µM.
`Cc1c(-c2c(-c3ccco3)sc3ncnc(OC(Cc4ccccc4OCC(F)(F)F)C(=O)O)c23)ccc(OCCN2CCN(C)CC2)c1Cl` [Example 221, (2R)-2-{[(5Sa)-5-{3-chloro-2-methyl-4-[2-(4-methylpiperazin-1-yl)ethoxy]phenyl}-6-(furan-2-yl)thieno[2,3-d]pyrimidin-4-yl]oxy}-3-[2-(2,2,2-trifluoroethoxy)phenyl]propanoic acid]: the IC50 in test [1] (setting [3]) was found to be 6.3e-09 M; in test [2] it was 0.059 µM.
In the case of `Cc1cc(-c2nccc(COc3ccccc3CC(Oc3ncnc4sc(-c5ccc(F)cc5)c(-c5ccc(OCCN(C)C)c(Cl)c5C)c34)C(=O)O)n2)c(C)cn1` [Example 751, (2R)-2-{[(5Sa)-5-{3-chloro-4-[2-(dimethylamino)ethoxy]-2-methylphenyl}-6-(4-fluorophenyl)thieno[2,3-d]pyrimidin-4-yl]oxy}-3-(2-{[2-(2,5-dimethylpyridin-4-yl)pyrimidin-4-yl]methoxy}phenyl)propanoic acid], the IC50 in test [1] (setting [4]) came to 9.48e-10 M; in test [2], 0.008 µM.
Consider `Cc1c(-c2c(-c3ccco3)sc3ncnc(OC(Cc4ccccc4OCc4cccc(Cl)n4)C(=O)O)c23)ccc(OCCN2CCN(C)CC2)c1Cl` [Example 236, (2R)-2-{[(5Sa)-5-{3-chloro-2-methyl-4-[2-(4-methylpiperazin-1-yl)ethoxy]phenyl}-6-(furan-2-yl)thieno[2,3-d]pyrimidin-4-yl]oxy}-3-{2-[(6-chloropyridin-2-yl)methoxy]phenyl}propanoic acid], for which the figures for the IC50 in test [1] (setting [3]) and in test [2] were 7.4e-09 M and 0.137 µM, respectively.
The like results for `Cc1c(-c2c(-c3ccco3)sc3ncnc(OC(Cc4ccccc4OCc4cocn4)C(=O)O)c23)ccc(OCCN2CCN(C)CC2)c1Cl` [Example 280, (2R)-2-{[(5Sa)-5-{3-chloro-2-methyl-4-[2-(4-methylpiperazin-1-yl)ethoxy]phenyl}-6-(furan-2-yl)thieno[2,3-d]pyrimidin-4-yl]oxy}-3-[2-(1,3-oxazol-4-ylmethoxy)phenyl]propanoic acid] were, in that order, 4e-09 M and 0.071 µM.
For the compound `COc1ccccc1-c1nccc(COc2ccccc2CC(Oc2ncnc3sc(-c4ccc(F)cc4)c(-c4ccc(OCCN5CCNCC5)c(Cl)c4C)c23)C(=O)O)n1` [Example 744, (2R)-2-{[(5Sa)-5-{3-chloro-2-methyl-4-[2-(piperazin-1-yl)ethoxy]phenyl}-6-(4-fluorophenyl)thieno[2,3-d]pyrimidin-4-yl]oxy}-3-(2-{[2-(2-methoxyphenyl)pyrimidin-4-yl]methoxy}phenyl)propanoic acid], the figures for the 50% inhibitory concentration (IC50) in test [1] (setting [4]) and in test [2] were 9.48e-10 M and 0.042 µM, respectively.
Regarding `COc1cc(COc2ccccc2CC(Oc2ncnc3sc(-c4ccc(F)o4)c(-c4ccc(OCCN5CCN(C)CC5)c(Cl)c4C)c23)C(=O)O)ncn1` [Example 162, (2R)-2-{[(5Sa)-5-{3-chloro-2-methyl-4-[2-(4-methylpiperazin-1-yl)ethoxy]phenyl}-6-(5-fluorofuran-2-yl)thieno[2,3-d]pyrimidin-4-yl]oxy}-3-{2-[(6-methoxypyrimidin-4-yl)methoxy]phenyl}propanoic acid], the 50% inhibitory concentration (IC50) in test [1] (setting [3]) amounted to 9.9e-09 M; in test [2], 0.027 µM.
Regarding `CCc1sc2ncnc(OC(Cc3ccccc3OCc3ccnn3CC)C(=O)O)c2c1-c1ccc(OCCN2CCN(C)CC2)c(Cl)c1C` [Example 456, (2R)-2-[((5Sa)-5-{3-chloro-2-methyl-4-[2-(4-methylpiperazin-1-yl)ethoxy]phenyl}-6-ethylthieno[2,3-d]pyrimidin-4-yl)oxy]-3-{2-[(1-ethyl-1H-pyrazol-5-yl)methoxy]phenyl}propanoic acid], the IC50 in test [1] (setting [4]) came out at 8e-09 M; in test [2], 0.513 µM.
Take `Cc1c(-c2c(-c3ccc(F)o3)sc3ncnc(OC(Cc4ccccc4OCc4cccc(C(F)(F)F)n4)C(=O)O)c23)ccc(OCCN2CCN(C)CC2)c1Cl` [Example 164, (2R)-2-{[(5Sa)-5-{3-chloro-2-methyl-4-[2-(4-methylpiperazin-1-yl)ethoxy]phenyl}-6-(5-fluorofuran-2-yl)thieno[2,3-d]pyrimidin-4-yl]oxy}-3-(2-{[6-(trifluoromethyl)pyridin-2-yl]methoxy}phenyl)propanoic acid]: the IC50 turned out to be 8.2e-09 M in test [1] (setting [3]) and 0.046 µM in test [2].
The like results for `COc1ccccc1CC(Oc1ncnc2sc(-c3ccco3)c(-c3ccc(OCC4CN(C)CCN4C)c(Cl)c3C)c12)C(=O)O` [Example 313, (2R)-2-{[(5Sa)-5-{3-chloro-4-[(1,4-dimethylpiperazin-2-yl)methoxy]-2-methylphenyl}-6-(furan-2-yl)thieno[2,3-d]pyrimidin-4-yl]oxy}-3-(2-methoxyphenyl)propanoic acid] were, in that order, 1e-08 M and 0.886 µM.
The like results for `Cc1c(-c2c(-c3ccc(Cl)o3)sc3ncnc(OC(Cc4ccccc4OCc4ccnn4CC(F)(F)F)C(=O)O)c23)ccc(OCCN2CCN(C)CC2)c1Cl` [Example 373, (2R)-2-{[6-(5-chlorofuran-2-yl)-(5Sa)-5-{3-chloro-2-methyl-4-[2-(4-methylpiperazin-1-yl)ethoxy]phenyl}thieno[2,3-d]pyrimidin-4-yl]oxy}-3-(2-{[1-(2,2,2-trifluoroethyl)-1H-pyrazol-5-yl]methoxy}phenyl)propanoic acid] were, in that order, 4.6e-09 M and 0.012 µM.
As for `COc1nccc(COc2ccccc2CC(Oc2ncnc3sc(-c4ccc(Cl)o4)c(-c4ccc(OCCN5CCN(C)CC5)c(Cl)c4C)c23)C(=O)O)n1` [Example 369, (2R)-2-{[6-(5-chlorofuran-2-yl)-(5Sa)-5-{3-chloro-2-methyl-4-[2-(4-methylpiperazin-1-yl)ethoxy]phenyl}thieno[2,3-d]pyrimidin-4-yl]oxy}-3-{2-[(2-methoxypyrimidin-4-yl)methoxy]phenyl}propanoic acid], the IC50 in test [1] (setting [3]) worked out at 5.1e-09 M; in test [2], 0.009 µM.
Take `COCCOc1cccc(-c2sc3ncnc(OC(Cc4ccccc4OC)C(=O)O)c3c2-c2ccc(OCCN3CCN(C)CC3)c(Cl)c2C)c1` [Example 589, (2R)-2-[((5Sa)-5-{3-chloro-2-methyl-4-[2-(4-methylpiperazin-1-yl)ethoxy]phenyl}-6-[3-(2-methoxyethoxy)phenyl]thieno[2,3-d]pyrimidin-4-yl)oxy]-3-(2-methoxyphenyl)propanoic acid]: the concentration for half-maximal inhibition (IC50) in test [1] (setting [4]) was determined as 8.7e-09 M; in test [2], 0.233 µM.
For the compound `Cc1c(-c2c(-c3ccc(F)cc3)sc3ncnc(OC(Cc4ccccc4OCc4ccnn4C4CCCCC4)C(=O)O)c23)ccc(OCCN2CCN(C)CC2)c1Cl` [Example 73, (2R)-2-{[(5Sa)-5-{3-chloro-2-methyl-4-[2-(4-methylpiperazin-1-yl)ethoxy]phenyl}-6-(4-fluorophenyl)thieno[2,3-d]pyrimidin-4-yl]oxy}-3-{2-[(1-cyclohexyl-1H-pyrazol-5-yl)methoxy]phenyl}propanoic acid], the half-maximal inhibitory concentration (IC50) in test [1] (setting [3]) is 8.3e-09 M; in test [2], 0.122 µM.
